Source: PubChem BioAssay AID2060330 (Molecular Pharmacology Branch, DTP, NCI, 2025)

Test system: LG0703-F948-PDC spheroids with HUVEC/MSC, viability
Test: Anticancer human tumor LG0703-F948-PDC patient-derived lung adenocarcinoma cell line growth inhibition [IpAb]
Settings: for IC50: curve of first compound; for viability, T/C: stronger effect = lower value
Summary of the method: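 Combinations with ipatasertib or abemaciclib were tested on tumour spheroids holding HUVEC (25%) and MSC (15%) alongside 60% malignant cells. Top concentration was at or near clinical Cmax (10 microM if undefined), descending in half-log steps.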

[1] = second compound 0.01 µM, first compound 0.0316 µM
[2] = second compound 0.01 µM, first compound 0.1 µM
[3] = second compound 0.0316 µM, first compound 0.0316 µM
[4] = second compound 0.0316 µM, first compound 0.1 µM
[5] = second compound 0.1 µM, first compound 0.0316 µM
[6] = second compound 0.1 µM, first compound 0.1 µM
[7] = second compound 0.316 µM, first compound 0.0316 µM
[8] = second compound 0.316 µM, first compound 0.1 µM
[9] = second compound 1 µM, first compound 0.0316 µM
[10] = second compound 1 µM, first compound 0.1 µM
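Also: spheroids exposed to compounds for seven days before readout.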
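For viability, T/C in this document: T/C percent relative to DMSO vehicle wells set as 100% viability.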

`Cn1ncc(Cl)c1-c1cc(C(=O)NC(CN)Cc2cccc(F)c2)sc1Cl` (stereo not given) + CCN1CCN(Cc2ccc(Nc3ncc(F)c(-c4cc(F)c5nc(C)n(C(C)C)c5c4)n3)nc2)CC1 was tested. Which IC50 (second compound 0.01 µM) did it give?
The IC50 was 0.643 µM.

What about the IC50 (second compound 0.0316 µM) of the same compound?
The IC50 was 0.401 µM.

And the IC50 (second compound 0.1 µM)?
Its IC50 is 0.372 µM.

And the IC50 (second compound 0.316 µM)?
Its IC50 is 0.349 µM.

What about the IC50 (second compound 1 µM) of the same compound?
Its IC50 is 0.278 µM.

What about the viability, T/C [1] of the same compound?
Its viability, T/C is 88%.

And the viability, T/C [2]?
The viability, T/C was 67.6%.

What about the viability, T/C (second compound 0.01 µM, first compound 0.316 µM) of the same compound?
Its viability, T/C is 59.3%.

And the viability, T/C (second compound 0.01 µM, first compound 1 µM)?
Its viability, T/C is 49.3%.

What about the viability, T/C (second compound 0.01 µM, first compound 3.16 µM) of the same compound?
The viability, T/C was 21.5%.

What about the viability, T/C (second compound 0.01 µM, first compound 10 µM) of the same compound?
The viability, T/C was 0.13%.

What about the viability, T/C [3] of the same compound?
The viability, T/C was 86.1%.

And the viability, T/C [4]?
Its viability, T/C is 63.7%.

What about the viability, T/C (second compound 0.0316 µM, first compound 0.316 µM) of the same compound?
Its viability, T/C is 51.3%.

What about the viability, T/C (second compound 0.0316 µM, first compound 1 µM) of the same compound?
The viability, T/C was 45.9%.

And the viability, T/C (second compound 0.0316 µM, first compound 3.16 µM)?
The viability, T/C was 13.3%.

And the viability, T/C (second compound 0.0316 µM, first compound 10 µM)?
The viability, T/C was 0.13%.

And the viability, T/C [5]?
The viability, T/C was 86.3%.

What about the viability, T/C [6] of the same compound?
The viability, T/C was 68.8%.

What about the viability, T/C (second compound 0.1 µM, first compound 0.316 µM) of the same compound?
Its viability, T/C is 44.4%.

What about the viability, T/C (second compound 0.1 µM, first compound 1 µM) of the same compound?
Its viability, T/C is 46.4%.

What about the viability, T/C (second compound 0.1 µM, first compound 3.16 µM) of the same compound?
The viability, T/C was 13.5%.

What about the viability, T/C (second compound 0.1 µM, first compound 10 µM) of the same compound?
The viability, T/C was 0.13%.

And the viability, T/C [7]?
The viability, T/C was 86.1%.

And the viability, T/C [8]?
Its viability, T/C is 70%.

And the viability, T/C (second compound 0.316 µM, first compound 0.316 µM)?
Its viability, T/C is 41.9%.

What about the viability, T/C (second compound 0.316 µM, first compound 1 µM) of the same compound?
Its viability, T/C is 48.7%.

And the viability, T/C (second compound 0.316 µM, first compound 3.16 µM)?
The viability, T/C was 7.04%.

And the viability, T/C (second compound 0.316 µM, first compound 10 µM)?
Its viability, T/C is 0.12%.

And the viability, T/C [9]?
The viability, T/C was 77.9%.

What about the viability, T/C [10] of the same compound?
The viability, T/C was 71.5%.

And the viability, T/C (second compound 1 µM, first compound 0.316 µM)?
Its viability, T/C is 37.4%.

And the viability, T/C (second compound 1 µM, first compound 1 µM)?
Its viability, T/C is 40.1%.

And the viability, T/C (second compound 1 µM, first compound 3.16 µM)?
Its viability, T/C is 1.07%.

And the viability, T/C (second compound 1 µM, first compound 10 µM)?
Its viability, T/C is 0.17%.

What does the source list for `Cn1ncnc1[C@H]1c2n[nH]c(=O)c3cc(F)cc(c23)N[C@@H]1c1ccc(F)cc1` + CCN1CCN(Cc2ccc(Nc3ncc(F)c(-c4cc(F)c5nc(C)n(C(C)C)c5c4)n3)nc2)CC1?
IC50 (second compound 0.01 µM): > 0.1 µM; IC50 (second compound 0.0316 µM): > 0.1 µM; IC50 (second compound 0.1 µM): > 0.1 µM; IC50 (second compound 0.316 µM): > 0.1 µM; IC50 (second compound 1 µM): > 0.1 µM; viability, T/C (second compound 0.01 µM, first compound 0.000316 µM): 104%; viability, T/C (second compound 0.01 µM, first compound 0.001 µM): 98%; viability, T/C (second compound 0.01 µM, first compound 0.00316 µM): 99.2%; viability, T/C (second compound 0.01 µM, first compound 0.01 µM): 97.3%; viability, T/C [1]: 91.2%; viability, T/C [2]: 88.8%; viability, T/C (second compound 0.0316 µM, first compound 0.000316 µM): 94%; viability, T/C (second compound 0.0316 µM, first compound 0.001 µM): 91.4%; viability, T/C (second compound 0.0316 µM, first compound 0.00316 µM): 79.9%; viability, T/C (second compound 0.0316 µM, first compound 0.01 µM): 86.1%; viability, T/C [3]: 92.6%; viability, T/C [4]: 83.4%; viability, T/C (second compound 0.1 µM, first compound 0.000316 µM): 79.5%; viability, T/C (second compound 0.1 µM, first compound 0.001 µM): 88.8%; viability, T/C (second compound 0.1 µM, first compound 0.00316 µM): 73%; viability, T/C (second compound 0.1 µM, first compound 0.01 µM): 75.2%; viability, T/C [5]: 74.4%; viability, T/C [6]: 84.3%; viability, T/C (second compound 0.316 µM, first compound 0.000316 µM): 85.6%; viability, T/C (second compound 0.316 µM, first compound 0.001 µM): 80.6%; viability, T/C (second compound 0.316 µM, first compound 0.00316 µM): 67.7%; viability, T/C (second compound 0.316 µM, first compound 0.01 µM): 86.8%; viability, T/C [7]: 84.1%; viability, T/C [8]: 76.7%; viability, T/C (second compound 1 µM, first compound 0.000316 µM): 82.2%; viability, T/C (second compound 1 µM, first compound 0.001 µM): 72.7%; viability, T/C (second compound 1 µM, first compound 0.00316 µM): 43.4%; viability, T/C (second compound 1 µM, first compound 0.01 µM): 68.9%; viability, T/C [9]: 74.4%; viability, T/C [10]: 80.2%
